The supplement of paper PMC10307832

Assays:
Assay in all cases: relative viability (nuclei count vs DMSO), 5 days (fraction); higher = more cells survive
LXF-289 = test system: LXF-289
In short: (§1)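 Cells from lung cancer lines were seeded into 1536-well plates and, one day later, dosed by pin tool. Treatments were either a single drug or a fixed dose of an anchor drug with five library-drug doses (not always all listed) in √10 steps. After 5 days, nuclei were stained in a one-step fixation (final 0.05% Triton X-100, 1% formaldehyde, 1 ug/ml Hoechst) and counted on 4× images, and relative viability is the treated-to-vehicle nuclei ratio, as the median of duplicate plates.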

ABC-1 = test system: ABC-1
In short: as §1

NCI-H1993 = test system: NCI-H1993
In short: as §1

LK-2 = test system: LK-2
In short: as §1

NCI-H1792 = test system: NCI-H1792
In short: as §1

NCI-H2009 = test system: NCI-H2009
In short: as §1

SK-MES-1 = test system: SK-MES-1
In short: as §1

SW 900 = test system: SW 900
In short: as §1

NCI-H2170 = test system: NCI-H2170
In short: as §1

HARA = test system: HARA
In short: as §1

SW 1573 = test system: SW 1573
In short: as §1

NCI-H727 = test system: NCI-H727
In short: as §1

PC-3 [JPC-3] = test system: PC-3 [JPC-3]
In short: as §1

NCI-H522 = test system: NCI-H522
In short: as §1

HOP-62 = test system: HOP-62
In short: as §1

EMC-BAC-2 = test system: EMC-BAC-2
In short: as §1

NCI-H322M = test system: NCI-H322M
In short: as §1

NCI-H1944 = test system: NCI-H1944
In short: as §1

NCI-H3122 = test system: NCI-H3122
In short: as §1

NCI-H596 = test system: NCI-H596
In short: as §1

A-427 = test system: A-427
In short: as §1

COc1cc2nccc(Oc3ccc(NC(=O)Nc4cc(C)on4)c(Cl)c3)c2cc1OC [Tivozanib] + Nc1ncn([C@H]2C[C@H](O)[C@@H](CO)O2)c(=O)n1 [Decitabine] (partner 2 µM)
relative viability (LXF-289; first compound 0.005 µM): 0.331 | relative viability (LXF-289; first compound 0.01581 µM): 0.363 | relative viability (LXF-289; first compound 0.05 µM): 0.35 | relative viability (LXF-289; first compound 0.1581 µM): 0.346 | relative viability (LXF-289; first compound 0.5 µM): 0.404 | relative viability (ABC-1; first compound 0.005 µM): 0.986 | relative viability (ABC-1; first compound 0.01581 µM): 1.01 | relative viability (ABC-1; first compound 0.05 µM): 1.15 | relative viability (ABC-1; first compound 0.1581 µM): 0.868 | relative viability (ABC-1; first compound 0.5 µM): 0.694 | relative viability (NCI-H1993; first compound 0.005 µM): 0.658 | relative viability (NCI-H1993; first compound 0.01581 µM): 0.595 | relative viability (NCI-H1993; first compound 0.05 µM): 0.581 | relative viability (NCI-H1993; first compound 0.1581 µM): 0.469 | relative viability (NCI-H1993; first compound 0.5 µM): 0.592 | relative viability (LK-2; first compound 0.005 µM): 0.275 | relative viability (LK-2; first compound 0.01581 µM): 0.322 | relative viability (LK-2; first compound 0.05 µM): 0.334 | relative viability (LK-2; first compound 0.1581 µM): 0.204 | relative viability (LK-2; first compound 0.5 µM): 0.206 | relative viability (NCI-H1792; first compound 0.005 µM): 0.514 | relative viability (NCI-H1792; first compound 0.01581 µM): 0.538 | relative viability (NCI-H1792; first compound 0.05 µM): 0.574 | relative viability (NCI-H1792; first compound 0.5 µM): 0.499 | relative viability (NCI-H2009; first compound 0.005 µM): 0.388 | relative viability (NCI-H2009; first compound 0.01581 µM): 0.329 | relative viability (NCI-H2009; first compound 0.05 µM): 0.382 | relative viability (NCI-H2009; first compound 0.1581 µM): 0.369 | relative viability (NCI-H2009; first compound 0.5 µM): 0.368 | relative viability (SK-MES-1; first compound 0.005 µM): 0.363 | relative viability (SK-MES-1; first compound 0.01581 µM): 0.363 | relative viability (SK-MES-1; first compound 0.05 µM): 0.371 | relative viability (SK-MES-1; first compound 0.1581 µM): 0.393 | relative viability (SK-MES-1; first compound 0.5 µM): 0.435 | relative viability (SW 900; first compound 0.005 µM): 0.454 | relative viability (SW 900; first compound 0.01581 µM): 0.411 | relative viability (SW 900; first compound 0.05 µM): 0.454 | relative viability (SW 900; first compound 0.5 µM): 0.389 | relative viability (NCI-H2170; first compound 0.005 µM): 0.463 | relative viability (NCI-H2170; first compound 0.01581 µM): 0.495 | relative viability (NCI-H2170; first compound 0.05 µM): 0.489 | relative viability (NCI-H2170; first compound 0.5 µM): 0.458 | relative viability (HARA; first compound 0.005 µM): 0.469 | relative viability (HARA; first compound 0.01581 µM): 0.571 | relative viability (HARA; first compound 0.05 µM): 0.59 | relative viability (HARA; first compound 0.1581 µM): 0.652 | relative viability (HARA; first compound 0.5 µM): 0.793 | relative viability (SW 1573; first compound 0.005 µM): 0.461 | relative viability (SW 1573; first compound 0.01581 µM): 0.446 | relative viability (SW 1573; first compound 0.05 µM): 0.487 | relative viability (SW 1573; first compound 0.1581 µM): 0.376 | relative viability (SW 1573; first compound 0.5 µM): 0.451 | relative viability (NCI-H727; first compound 0.005 µM): 0.836 | relative viability (NCI-H727; first compound 0.01581 µM): 0.929 | relative viability (NCI-H727; first compound 0.05 µM): 0.85 | relative viability (NCI-H727; first compound 0.1581 µM): 0.59 | relative viability (NCI-H727; first compound 0.5 µM): 0.905 | relative viability (PC-3 [JPC-3]; first compound 0.01581 µM): 0.843 | relative viability (PC-3 [JPC-3]; first compound 0.05 µM): 0.805 | relative viability (PC-3 [JPC-3]; first compound 0.1581 µM): 0.815 | relative viability (PC-3 [JPC-3]; first compound 0.5 µM): 0.831 | relative viability (NCI-H522; first compound 0.005 µM): 0.702 | relative viability (NCI-H522; first compound 0.01581 µM): 0.68 | relative viability (NCI-H522; first compound 0.05 µM): 0.696 | relative viability (NCI-H522; first compound 0.1581 µM): 0.665 | relative viability (NCI-H522; first compound 0.5 µM): 0.577 | relative viability (HOP-62; first compound 0.005 µM): 0.247 | relative viability (HOP-62; first compound 0.01581 µM): 0.187 | relative viability (HOP-62; first compound 0.05 µM): 0.2 | relative viability (HOP-62; first compound 0.1581 µM): 0.256 | relative viability (HOP-62; first compound 0.5 µM): 0.223 | relative viability (EMC-BAC-2; first compound 0.005 µM): 1.02 | relative viability (EMC-BAC-2; first compound 0.01581 µM): 0.977 | relative viability (EMC-BAC-2; first compound 0.05 µM): 0.952 | relative viability (EMC-BAC-2; first compound 0.1581 µM): 0.927 | relative viability (EMC-BAC-2; first compound 0.5 µM): 0.975 | relative viability (NCI-H322M; first compound 0.005 µM): 0.632 | relative viability (NCI-H322M; first compound 0.01581 µM): 0.55 | relative viability (NCI-H322M; first compound 0.05 µM): 0.762 | relative viability (NCI-H322M; first compound 0.1581 µM): 0.656 | relative viability (NCI-H322M; first compound 0.5 µM): 0.686 | relative viability (NCI-H1944; first compound 0.005 µM): 0.402 | relative viability (NCI-H1944; first compound 0.01581 µM): 0.473 | relative viability (NCI-H1944; first compound 0.05 µM): 0.447 | relative viability (NCI-H1944; first compound 0.1581 µM): 0.459 | relative viability (NCI-H1944; first compound 0.5 µM): 0.416 | relative viability (NCI-H3122; first compound 0.005 µM): 0.462 | relative viability (NCI-H3122; first compound 0.01581 µM): 0.427 | relative viability (NCI-H3122; first compound 0.05 µM): 0.429 | relative viability (NCI-H3122; first compound 0.1581 µM): 0.401 | relative viability (NCI-H3122; first compound 0.5 µM): 0.563 | relative viability (NCI-H596; first compound 0.005 µM): 0.975 | relative viability (NCI-H596; first compound 0.01581 µM): 0.994 | relative viability (NCI-H596; first compound 0.05 µM): 1.15 | relative viability (NCI-H596; first compound 0.5 µM): 1.03 | relative viability (A-427; first compound 0.005 µM): 0.566 | relative viability (A-427; first compound 0.01581 µM): 0.551 | relative viability (A-427; first compound 0.05 µM): 0.575 | relative viability (A-427; first compound 0.1581 µM): 0.566 | relative viability (A-427; first compound 0.5 µM): 0.543
